Here are results for four molecules from paper PMC7559934, “Characterization of Resveratrol, Oxyresveratrol, Piceatannol and Roflumilast as Modulators of Phosphodiesterase Activity. Study of Yeast Lifespan” (Pharmaceuticals, 2020).

The target in assay [1] is T1, yPDE2 (high-affinity phosphodiesterase type 2) (Saccharomyces cerevisiae, UniProt P06776).
T1 construct: gene PDE2
T1 sequence (P06776 1-526): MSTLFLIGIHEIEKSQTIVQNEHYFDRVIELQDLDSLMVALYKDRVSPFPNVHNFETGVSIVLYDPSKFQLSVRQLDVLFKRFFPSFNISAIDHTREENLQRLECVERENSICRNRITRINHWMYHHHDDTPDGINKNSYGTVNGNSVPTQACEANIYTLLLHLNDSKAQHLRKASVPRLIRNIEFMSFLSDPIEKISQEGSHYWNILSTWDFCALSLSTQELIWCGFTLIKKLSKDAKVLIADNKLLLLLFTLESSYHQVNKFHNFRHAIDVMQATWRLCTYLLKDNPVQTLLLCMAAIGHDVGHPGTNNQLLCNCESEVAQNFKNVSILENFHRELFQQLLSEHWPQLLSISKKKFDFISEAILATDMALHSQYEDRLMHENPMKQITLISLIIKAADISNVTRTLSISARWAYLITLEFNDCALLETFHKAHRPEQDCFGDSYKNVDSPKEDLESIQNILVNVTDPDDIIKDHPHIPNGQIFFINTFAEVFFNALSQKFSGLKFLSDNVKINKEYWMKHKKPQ
Kind of assay: HPLC-UV assay of cAMP hydrolysis; Ki converted from I50 (competitive equation). Conditions: read-out: Inhibitors. In kind it is biochemical.

For assay [2], the target named is T1, yPDE2 (high-affinity phosphodiesterase type 2). Nature of the assay: HPLC-UV assay of cAMP hydrolysis; Lineweaver-Burk and Km app/Km plot at several inhibitor concentrations. The assay is classed as biochemical. Conditions: read-out: Inhibitors.

As to `Oc1cc(O)cc(/C=C/c2ccc(O)cc2O)c1` [oxyresveratrol], in assay [1], the Ki amounted to 46 ± 4 µM. On to `Oc1cc(O)cc(/C=C/c2ccc(O)c(O)c2)c1` [piceatannol], for which the Ki in assay [1] was 50 ± 5 µM.

For `Oc1ccc(/C=C/c2cc(O)cc(O)c2)cc1` [resveratrol], the Ki in assay [2] was determined as 63 ± 3 µM. Turning to `O=C(Nc1c(Cl)cncc1Cl)c1ccc(OC(F)F)c(OCC2CC2)c1` [roflumilast], the Ki in assay [1] turned out to be 0.3 ± 0.02 µM.
